Experimental data reported in patent publication US5639474A (Hanmi Pharm. Ind., Ltd., priority 1993, dated 1997).

Settings: for Change in contents (per capsule): Initial content: cosurfactant content in soft capsule
From the text: The membrane permeation property of dimethylisosorbide over the storage period at the room temperature was examined for the soft capsules prepared using dimethylisosorbide (ARLASOLVE® DMI) as a cosurfactant according to the present invention and then compared with the membrane permeation properties of ethanol, propylene glycol, Transcutol (diethylene glycol monoethyl ether) and Glycofurol (tetrahydrofurfuryl alcohol polyethylene glycol ether). The content of the cosurfactant in each soft capsule preparation was analyzed by gas chromatography. The components and their constitutional ratios in the compositions used in this experiment are given in the following Table 1 and the experiment results are given in the following Table 2.
Note: Conditions of gas chromatography for each cosurfactant
Column: Ultra 2 (Cross-linked 2% phenylmethyl silicone gun phase, 25 m×0.32 mm, thickness 0.52 μm)
Column temperature: 230° C. (Isothermal)
Detector: FID (Temperature: 270° C.)
Injection temperature: 275° C.
Carrier gas: He (Partition ratio 80:1)
Internal standard: Octyl alcohol
Column: HP-20M (Carbowax 20M) (25 m×0.32 mm, film thickness 0.3 μm)
Column temperature: 30° C. (Isothermal)
Detector: FID (Temperature: 200° C.)
Injection temperature: 150° C.
Internal standard: Diethyl ether
Column temperature: 180° C. (Isothermal)
Detector: FID (Temperature: 240° C.)
Injection temperature: 240° C.
Internal standard: Pentadecanoic acid methyl ester
Column: Ultra 2 (Cross-linked 5% phenylmethyl silicone gun phase, 25 m×0.32 mm, thickness 0.52 μm)
Injection temperature: 270° C.
Detector: FID (Temperature: 270° C.) p1 Injection temperature: 270° C.
Internal standard: Dimethylisosorbide

| Molecule | Change in contents (per capsule): Initial content | Change in contents (per capsule): Storage period 2 days (room temperature) | Change in contents (per capsule): Storage period 14 days (room temperature) | Change in contents (per capsule): Storage period 5 days (room temperature, 5 days) |
| --- | --- | --- | --- | --- |
| tetrahydrofurfuryl alcohol polyethylene glycol ether [Glycofurol] | 19.8 | 8.2 | 3.2 |  |
| CC(O)CO (stereo not drawn) [Propylene glycol, propylene glycol] | 19.8 | 3.6 |  | 0.9 |
| CCOCCOCCO [Transcutol, diethylene glycol monoethyl ether] | 19.8 | 7.3 | 2.7 |  |
